Experiment [1] deals with phospho-akt (Thr308) in PC-3 cells. The experiment in a line: Inhibition of phospho-akt (Thr308) in PC-3 cells, MSD phospho-akt 308 ELISA kit. In kind it is cell-based. The note with it: Homo sapiens, 2 hours, no serum, read-out: EC50. In a few lines:
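PC-3 cells were seeded overnight in growth medium with 10% FBS, then exposed to compound serially diluted threefold in serum-free medium for 2 hours. Lysates were captured overnight at 4 degrees on MSD plates and phospho-Akt Thr308 was detected electrochemiluminescently, against DMSO high and 5 μM wortmannin low controls.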
In general terms: ELISA stands for enzyme-linked immunosorbent assay.

The target of experiment [2] is PDK1 (Homo sapiens (Human), UniProt O15530). The experiment in a line: PDK1 kinase assay (coupled PDK1/AKT/FAM-crosstide assay, IMAP fluorescence polarization). In kind it is biochemical. The essentials:
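PDK1 activity is measured indirectly through activation of a PIFtide-fused AKT2 construct that phosphorylates FAM-crosstide (100 nM). The reaction uses 0.75 nM PDK1, 40 μM ATP, 30 min, 25° C, with IMAP polarization detection.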
On the technique in general: In fluorescence polarisation assays a small probe gives low polarisation when free and higher when bound to something large.

Where [3] appears, read: inhibition of P308 Akt in PC-3 cells using MSD.
The mark [4] stands for this setting: inhibition of P308 Akt in PC-3 cells, MSD.
Setting [5] is: inhibition of phospo-PDK1 in vitro.

Counter-ions that a name gives are not always drawn. Like-named read-outs stand apart in the source and are kept apart here. Bounds are passed on as bounds.

Sequence of PDK1 (O15530 51-359): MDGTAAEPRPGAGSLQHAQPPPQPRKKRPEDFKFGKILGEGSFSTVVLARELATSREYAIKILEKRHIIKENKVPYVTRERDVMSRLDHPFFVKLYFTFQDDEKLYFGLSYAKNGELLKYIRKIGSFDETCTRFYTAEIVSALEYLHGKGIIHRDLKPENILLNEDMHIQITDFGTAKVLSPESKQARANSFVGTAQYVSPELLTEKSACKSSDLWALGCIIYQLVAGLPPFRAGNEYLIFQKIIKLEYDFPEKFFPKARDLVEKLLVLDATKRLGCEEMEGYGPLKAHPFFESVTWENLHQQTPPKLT

Consider `C[C@H](NC(=O)c1nc(C#N)cnc1NCc1ccc(-c2ccc(N)nn2)cc1)c1ccc(F)c(F)c1` [Example 409, (S)-3-(4-(6-aminopyridazin-3-yl)benzylamino)-6-cyano-N-(1-(3,4-difluorophenyl)ethyl)pyrazine-2-carboxamide], for which the EC50 in experiment [1] (setting [3]) fell in the range of 1000 to 10000 nM. The compound also yielded an IC50 in experiment [2] (inhibition of PDK1 in vitro) below 100 nM.

As for `N#Cc1cnc(NCc2ccc(Oc3cccnc3N)cc2)c(C(=O)NCc2ccc(F)c(F)c2)c1` [Example 313, 2-(4-(2-aminopyridin-3-yloxy)benzylamino)-5-cyano-N-(3,4-difluorobenzyl) nicotinamide], the EC50 in experiment [1] (setting [3]) was above 10000 nM. In experiment [2] (inhibition of PDK1 in vitro), this compound showed an IC50 above 5000 nM.

For the compound `COc1ccc([C@H](COc2ccc([N+](=O)[O-])c(N)c2)Nc2ncccc2C(=O)N[C@@H](C)c2ccc(F)c(F)c2)cc1` [Example 16.5, 2-((R)-2-(3-amino-4-nitrophenoxy)-1-(4-methoxyphenyl)ethylamino)-N-((S)-1-(3,4-difluorophenyl)ethyl)nicotinamide], the EC50 in experiment [1] (setting [4]) lay in the range of 1000 to 10000 nM. In experiment [2] (setting [5]), this compound returned a 50% inhibitory concentration (IC50) above 5000 nM.

On to `O=C(NCc1ccc(F)c(F)c1)c1cccnc1NCc1cccc(-c2c[nH]c3ncncc23)c1` [Example 6.2, 2-(3-(7H-pyrrolo[2,3-d]pyrimidin-5-yl)benzylamino)-N-(3,4-difluorobenzyl)nicotinamide], for which the EC50 in experiment [1] (setting [4]) lay within 1000 to 10000 nM. Besides, in experiment [2] (setting [5]), the IC50 is below 100 nM.

For `C[C@H](NC(=O)c1cccnc1NCc1ccc(-c2ccc3ncnc(N)c3c2)s1)c1cc(F)cc(F)c1` [Example 3.62, (S)-2-(((5-(4-aminoquinazolin-6-yl)thiophen-2-yl)methyl)amino)-N-(1-(3,5-difluorophenyl)ethyl) nicotinamide (TFA salt)], the EC50 in experiment [1] (setting [4]) was in the range of 1000 to 10000 nM. This compound also displayed an IC50 in experiment [2] (setting [5]) below 100 nM.

`C[C@H](NC(=O)c1cc(C#N)cnc1NCc1ccc(-c2cnc(N)c(CC3CCNC3)n2)cc1)c1ccc(F)cc1` (stereo partly drawn) [Example 185, 2-[4-(5-Amino-6-pyrrolidin-3-ylmethyl-pyrazin-2-yl)-benzylamino]-5-cyano-N-[(S)-1-(4-fluoro-phenyl)-ethyl]-nicotinamide]: the concentration for a half-maximal effect (EC50) in experiment [1] (setting [3]) is below 1000 nM. In experiment [2] (inhibition of PDK1 in vitro), this compound displayed an IC50 below 100 nM.

Regarding `CC(C)Oc1cc(CNc2ncccc2C(=O)NC(C)(C)C)cc(-c2c[nH]c3ncc(C(=O)NC4CC4)cc23)c1` [Example 4.1.15, 3-[3-({[(3-tert-butylcarbamoyl)pyridin-2-yl]amino}methyl)-5-(propan-2-yloxy)phenyl]-N-cyclopropyl-1H-pyrrolo[2,3-b] pyridine-5-carboxamide], the EC50 in experiment [1] (setting [4]) was in the range of 1000 to 10000 nM. The IC50 in experiment [2] (setting [5]) is above 5000 nM.

In the case of `O=C(NCc1ccc(F)c(F)c1)c1cccnc1Nc1cccc(-c2cccc3c2CNC3=O)c1` [Example 17.1, N-(3,4-difluorobenzyl)-2-(3-(1-oxoisoindolin-4-yl)phenylamino)-nicotinamide], in experiment [1] (setting [4]), the EC50 is above 10000 nM. Besides, the IC50 in experiment [2] (setting [5]) was in the range of 100 to 1000 nM.

Turning to `N#Cc1cnc(NCc2ccc(-c3cnc4[nH]nc(N)c4c3)cc2)c(C(=O)NCc2cncc(F)c2)c1` [Example 311, 2-(4-(3-amino-1H-pyrazolo [3,4-b]pyridin-5-yl)benzylamino)-5-cyano-N-((5-fluoropyridin-3-yl)-5-methyl)nicotinamide], the EC50 in experiment [1] (setting [3]) was below 1000 nM. Moreover, in experiment [2] (inhibition of PDK1 in vitro), the concentration for half-maximal inhibition (IC50) is below 100 nM.

Turning to `Cn1cc(-c2ccc(CNc3ncc(C(F)(F)F)cc3C(=O)Nc3ccc(F)cc3)cn2)c2c(N)ncnc21` [Example 56, 2-(((6-(4-amino-7-methyl-7H-pyrrolo[2,3-d]pyrimidin-5-yl)pyridin-3-yl)methyl)amino)-N-(4-fluorophenyl)-5-(trifluoromethyl)nicotinamide], in experiment [1] (setting [3]), the EC50 is below 1000 nM. For the same compound, the IC50 in experiment [2] (inhibition of PDK1 in vitro) was below 100 nM.

In the case of `C[C@H](NC(=O)c1cc(C#N)cnc1NCc1ccc(-c2cnc3[nH]nc(C#CCN(C)C)c3c2)cc1)c1ccc(F)cc1` [Example 146, (S)-5-cyano-2-(4-(3-(3-(dimethylamino)prop-1-ynyl)-1H-pyrazolo[3,4-b]pyridin-5-yl)benzyl-amino)-N-(1-(4-fluorophenyl)ethyl) nicotinamide], in experiment [1] (setting [3]), the EC50 is below 1000 nM. The compound further registered a half-inhibitory concentration (IC50) in experiment [2] (inhibition of PDK1 in vitro) below 100 nM.

`C[C@@H](Nc1ncc(C(F)(F)F)nc1C(=O)Nc1ccc(F)cc1)c1ccc(-c2cnc3[nH]nc(N)c3c2)cc1` [Example 421, (R)-3-(1-(4-(3-amino-1H-pyrazolo[3,4-b]pyridin-5-yl)phenyl)ethylamino)-N-(4-fluorophenyl)-6-(trifluoromethyl)pyrazine-2-carboxamide]: the EC50 in experiment [1] (setting [3]) was below 1000 nM. Moreover, in experiment [2] (inhibition of PDK1 in vitro), the IC50 is below 100 nM.

In the case of `Nc1n[nH]c2ncc(-c3ccc(CNc4ncc(C(F)(F)F)cc4C(=O)NCC4CC4)cc3)cc12` [Example 272, 2-(4-(3-amino-1H-pyrazolo [3,4-b]pyridin-5-yl)benzylamino)-N-(cyclopropylmethyl)-5-(trifluoromethyl) nicotinamide], in experiment [1] (setting [3]), the EC50 fell in the range of 1000 to 10000 nM. Also, in experiment [2] (inhibition of PDK1 in vitro), the IC50 was 100 to 1000 nM.

On to `Nc1ncnc2ccc(-c3ccc(CNc4ncc(NC(=O)C5CCCC5)cc4C(=O)NCc4ccc(F)c(F)c4)s3)cc12` [Example 8.5.5, 2-({[5-(4-aminoquinazolin-6-yl)thiophen-2-yl]methyl}amino)-5-[(cyclopentylcarbonyl)amino]-N-(3,4-difluorobenzyl) pyridine-3-carboxamide], for which, in experiment [1] (PC-3, 2 h, inhibition of P308 Akt in PC-3 cells, MSD), the EC50 was 1000 to 10000 nM. For the same compound, in experiment [2] (setting [5]), the IC50 was in the range of 100 to 1000 nM.

With `C[C@H](NC(=O)c1cc(C#N)cnc1NCc1ccc(-c2ccc3ncnc(N)c3c2)s1)c1ccc(F)cc1` [Example 8.8.3, 2-({[5-(4-aminoquinazolin-6-yl)thiophen-2-yl]methyl}amino)-5-cyano-N-[(1S)-1-(4-fluorophenyl)ethyl] pyridine-3-carboxamide], the half-maximal effective concentration (EC50) in experiment [1] (setting [4]) was below 1000 nM. The IC50 in experiment [2] (setting [5]) is below 100 nM.

Regarding `C[C@H](NC(=O)c1cc(C#N)cnc1NCc1ccc(-c2cnc(N)c(CCCN)n2)nc1)c1ccc(F)cc1` [Example 74, 2-({6-[5-Amino-6-(3-amino-propyl)-pyrazin-2-yl]-pyridin-3-ylmethyl}-amino)-5-cyano-N-[(S)-1-(4-fluoro-phenyl)-ethyl]-nicotinamide], the half-maximal effective concentration (EC50) in experiment [1] (PC-3, 2 h, inhibition of P308 Akt in PC-3 cells using MSD) was 1000 to 10000 nM. The same compound came in with an IC50 in experiment [2] (inhibition of PDK1 in vitro) of 100 to 1000 nM.

For `C[C@H](NC(=O)c1cc(C#N)cnc1NCc1ccc(-c2cnc(N)c(C(=O)NCC(O)CO)c2)cc1)c1ccc(F)cc1` (some centres unmarked) [Example 206], the EC50 in experiment [1] (setting [3]) lay in the range of 1000 to 10000 nM. For the same compound, the IC50 in experiment [2] (inhibition of PDK1 in vitro) was below 100 nM.

Take `C[C@H](NC(=O)c1cn(-c2ccccn2)nc1NCc1ccc(-c2ccc3ncnc(N)c3c2)s1)c1ccc(F)c(F)c1` [Ex. 11.3]: the EC50 in experiment [1] (setting [4]) was below 1000 nM. Further, in experiment [2] (setting [5]), the IC50 is below 100 nM.

In the case of `C[C@@H](Nc1ncc(C(F)(F)F)cc1C(=O)Nc1ccc(F)cc1)c1ccc(-c2cn(C)c3ncnc(N)c23)cc1` [Example 403, (R)-2-(1-(4-(4-amino-7-methyl-7H-pyrrolo[2,3-d]pyrimidin-5-yl)phenyl)ethylamino)-N-(4-fluoro-phenyl)-5-(trifluoromethyl) nicotinamide], the EC50 in experiment [1] (setting [3]) lay in the range of 1000 to 10000 nM. In experiment [2] (inhibition of PDK1 in vitro), this compound showed an IC50 below 100 nM.

For the compound `C[C@H](NC(=O)c1nccnc1NCc1ccc(-c2cnc3[nH]ncc3c2)cc1)c1ccc(F)cc1` [Example 391, 3-[4-(1H-Pyrazolo[3,4-b]pyridin-5-yl)-benzylamino]-pyrazine-2-carboxylic acid [(S)-1-(4-fluoro-phenyl)-ethyl]-amide], the EC50 in experiment [1] (setting [3]) lay in the range of 1000 to 10000 nM. Moreover, the IC50 in experiment [2] (inhibition of PDK1 in vitro) is below 100 nM.

As for `C[C@H](NC(=O)c1cccnc1NCc1ccc(-c2ccc3ncnc(N)c3c2)s1)c1cc(F)c(F)c(F)c1` [Example 3.63, (S)-2-(((5-(4-aminoquinazolin-6-yl)thiophen-2-yl)methyl)amino)-N-(1-(3,4,5-trifluorophenyl)ethyl) nicotinamide (TFA salt)], the EC50 in experiment [1] (setting [4]) was below 1000 nM. The same compound returned an IC50 in experiment [2] (setting [5]) below 100 nM.

For the compound `Nc1ncnc2ccc(-c3ccc(CNc4ncc(I)cc4C(=O)NCc4ccc(F)c(F)c4)s3)cc12` [Ex. 8.3, 2-{[5-(4-amino-quinazolin-6-yl)-thiophen-2-ylmethyl]-amino}-N-(3,4-difluoro-benzyl)-5-iodo-nicotinamide], the EC50 in experiment [1] (setting [4]) was below 1000 nM. Also, the IC50 in experiment [2] (setting [5]) was below 100 nM.

Consider `Nc1ncnc2ccc(-c3ccc(CNc4ncccc4C(=O)NCc4ccc(F)cc4F)s3)cc12` [Example 3.8, 2-({[5-(4-aminoquinazolin-6-yl)thiophen-2-yl]methyl}amino)-N-(2,4-difluorobenzyl)pyridine-3-carboxamide (TFA salt)], for which the EC50 in experiment [1] (setting [4]) lay within 1000 to 10000 nM. Further, the IC50 in experiment [2] (setting [5]) is below 100 nM.

Take `CCNS(=O)(=O)c1cnc(NCc2ccc(-c3ccc4ncnc(N)c4c3)s2)c(C(=O)NC)c1` [Example 8.6.16, 2-(((5-(4-aminoquinazolin-6-yl)thiophen-2-yl)methyl)amino)-5-(N-ethylsulfamoyl)-N-methylnicotinamide]: the EC50 in experiment [1] (setting [4]) was above 10000 nM. The IC50 in experiment [2] (setting [5]) was above 5000 nM.

`COCC#Cc1cnc(NCc2ccc(-c3ccc4ncnc(N)c4c3)s2)c(C(=O)N[C@@H](C)c2ccc(F)c(F)c2)n1` [Ex. 10.8, 3-({[5-(4-aminoquinazolin-6-yl)thiophen-2-yl]methyl}amino)-N-[(1S)-1-(3,4-difluorophenyl)ethyl]-6-(3-methoxyprop-1-yn-1-yl)pyrazine-2-carboxamide]: the half-maximal effective concentration (EC50) in experiment [1] (setting [4]) was below 1000 nM. Further, in experiment [2] (setting [5]), the IC50 lay in the range of 100 to 1000 nM.

As usually defined, the EC50 is the concentration needed to bring the measured effect to its halfway point. What is called IC50 is the midpoint of a concentration-inhibition curve.

For the origin of these results see patent US10030016B2 (Sunesis Pharmaceuticals, Inc., priority 2009, dated 2018).
